What was measured:
Test in all cases: relative viability (nuclei count vs DMSO), 5 days (fraction); higher = more cells survive
NVP-TAE684 + Phenformin = compound: COc1cc(N2CCC(N3CCN(C)CC3)CC2)ccc1Nc1ncc(Cl)c(Nc2ccccc2S(=O)(=O)C(C)C)n1 [NVP-TAE684] + N=C(N)NC(=N)NCCc1ccccc1 [Phenformin] (partner 250 µM)
Outline: (§1)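 Lung cancer cell lines were pin-tool dosed in 1536-well plates on the day after seeding, with either a lone drug or a fixed anchor-drug dose plus five library-drug doses (not always all listed) in √10 steps. Nuclei were counted on 4× images after 5 days. Relative viability is the ratio of treated-well to vehicle-well nuclei counts, with each value a median of duplicate plates.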

CUDC-101 + Dasatinib = compound: C#Cc1cccc(Nc2ncnc3cc(OC)c(OCCCCCCC(=O)NO)cc23)c1 [CUDC-101] + Cc1nc(Nc2ncc(C(=O)Nc3c(C)cccc3Cl)s2)cc(N2CCN(CCO)CC2)n1 [Dasatinib] (partner 0.075 µM)
Outline: as §1

NVP-TAE684 + Crizotinib = compound: COc1cc(N2CCC(N3CCN(C)CC3)CC2)ccc1Nc1ncc(Cl)c(Nc2ccccc2S(=O)(=O)C(C)C)n1 [NVP-TAE684] + C[C@@H](Oc1cc(-c2cnn(C3CCNCC3)c2)cnc1N)c1c(Cl)ccc(F)c1Cl [Crizotinib] (partner 1 µM)
Outline: as §1

Vandetanib + Linsitinib = compound: COc1cc2/c(=N/c3ccc(Br)cc3F)nc[nH]c2cc1OCC1CCN(C)CC1 [Vandetanib] + C[C@]1(O)C[C@@H](c2nc(-c3ccc4ccc(-c5ccccc5)nc4c3)c3c(N)nccn32)C1 [Linsitinib] (partner 1 µM)
Outline: as §1

Cell Line | relative viability (NVP-TAE684 + Phenformin; first compound 0.2 µM) | relative viability (NVP-TAE684 + Phenformin; first compound 0.6325 µM) | relative viability (NVP-TAE684 + Phenformin; first compound 2 µM) | relative viability (CUDC-101 + Dasatinib; first compound 0.01 µM) | relative viability (CUDC-101 + Dasatinib; first compound 0.03162 µM) | relative viability (CUDC-101 + Dasatinib; first compound 0.1 µM) | relative viability (CUDC-101 + Dasatinib; first compound 0.3162 µM) | relative viability (CUDC-101 + Dasatinib; first compound 1 µM) | relative viability (NVP-TAE684 + Crizotinib; first compound 0.2 µM) | relative viability (NVP-TAE684 + Crizotinib; first compound 0.6325 µM) | relative viability (NVP-TAE684 + Crizotinib; first compound 2 µM) | relative viability (Vandetanib + Linsitinib; first compound 0.02 µM) | relative viability (Vandetanib + Linsitinib; first compound 0.06325 µM) | relative viability (Vandetanib + Linsitinib; first compound 0.2 µM) | relative viability (Vandetanib + Linsitinib; first compound 0.6325 µM) | relative viability (Vandetanib + Linsitinib; first compound 2 µM)
201T | 0.421 | 0.437 | 0.38 | 0.578 | 0.563 | 0.579 | 0.591 | 0.511 | 0.972 | 1.01 | 0.889 | 1.08 | 0.936 | 0.989 | 0.944 | 1.01
A549 | 0.153 | 0.171 | 0.122 |  |  |  |  |  | 0.709 | 0.458 | 0.0727 | 0.718 | 0.498 | 0.711 | 0.587 | 0.495
A-427 | 0.285 | 0.257 | 0.221 | 0.745 | 0.659 | 0.649 | 0.608 | 0.389 |  |  | 0.512 | 1.05 | 1.05 | 1.11 | 1.04 | 1.12
ABC-1 | 0.218 | 0.226 | 0.122 | 0.772 | 0.728 | 0.543 | 0.532 | 0.194 | 1.06 | 0.893 | 0.296 | 1.03 | 0.805 | 1.02 | 0.849 | 0.598
BEN | 0.257 | 0.285 | 0.231 | 0.426 | 0.301 | 0.346 | 0.311 | 0.264 | 0.713 | 0.837 | 0.678 | 0.851 | 0.82 | 0.869 | 0.868 | 0.793
CAL-12T | 0.365 | 0.472 | 0.117 | 0.72 | 0.372 | 0.346 | 0.514 | 0.318 | 0.63 | 0.444 | 0.282 | 0.874 | 0.774 | 0.923 | 0.781 | 0.647
COR-L23 | 0.329 | 0.406 | 0.201 | 0.578 | 0.485 | 0.477 | 0.499 | 0.177 | 0.536 | 0.69 | 0.238 | 0.757 | 0.688 | 0.131 | 0.919 | 0.955
COR-L 105 | 0.457 | 0.259 | 0.211 | 0.337 | 0.382 | 0.277 | 0.418 | 0.122 | 0.677 | 0.461 | 0.388 | 0.891 | 0.877 | 0.976 | 0.54 | 0.444
Calu-6 |  |  |  |  |  |  |  |  | 0.73 | 0.687 | 0.285 | 0.939 | 0.861 | 0.911 | 0.975 | 0.876
ChaGo-K-1 | 0.533 | 0.457 | 0.339 | 0.571 | 0.612 | 0.526 | 0.539 | 0.529 | 1.09 | 1.11 | 0.713 |  |  |  |  | 
EBC-1 |  |  |  |  |  |  |  |  | 0.208 | 0.174 | 0.155 | 0.742 | 0.893 | 0.958 | 0.885 | 0.925
EKVX | 0.24 | 0.23 | 0.208 | 0.374 | 0.499 | 0.571 | 0.439 | 0.362 | 0.775 | 0.859 | 0.582 | 1.04 | 0.948 | 0.962 | 0.793 | 0.493
EMC-BAC-2 | 0.402 | 0.464 | 0.319 | 0.359 | 0.324 | 0.35 | 0.262 | 0.149 | 0.751 | 0.806 | 0.441 | 0.792 | 0.772 | 0.612 | 0.77 | 0.673
EPLC-272H | 0.282 | 0.267 | 0.146 | 0.448 | 0.364 | 0.316 | 0.357 | 0.183 | 0.898 |  | 0.873 | 1.21 | 0.971 | 1.11 | 1.13 | 1.18
H3255 | 0.348 | 0.397 | 0.453 | 0.429 | 0.373 |  | 0.298 | 0.171 | 0.988 | 0.646 | 0.7 | 1.1 | 0.9 | 0.949 | 0.654 | 0.181
HARA | 0.397 | 0.394 | 0.304 | 0.246 | 0.311 | 0.271 | 0.282 | 0.229 | 1.07 | 1.02 | 0.508 | 1.03 | 0.749 | 1.04 | 0.985 | 0.989
HCC-15 | 0.495 | 0.396 | 0.238 | 0.641 | 0.622 | 0.628 | 0.672 | 0.473 | 0.806 | 0.792 | 0.319 | 0.816 | 0.804 | 0.91 | 0.864 | 0.849
HCC-44 | 0.263 | 0.141 | 0.0733 |  |  |  |  |  | 0.782 | 0.868 | 0.489 | 0.642 | 0.64 | 0.753 | 0.724 | 0.688
HCC-78 | 0.658 | 0.442 | 0.422 | 0.401 | 0.293 | 0.373 | 0.28 | 0.213 | 0.287 | 0.296 | 0.286 | 0.414 | 0.438 | 0.567 | 0.579 | 0.337
HCC-366 | 0.66 | 0.629 | 0.588 | 0.631 | 0.632 | 0.6 | 0.715 | 0.526 | 0.923 | 0.648 | 0.226 | 0.644 | 0.488 | 0.584 | 0.636 | 0.526
HCC-827 | 0.377 | 0.41 | 0.372 | 0.317 | 0.154 | 0.116 | 0.135 | 0.13 | 0.914 | 0.907 | 0.868 | 0.922 | 0.941 | 0.929 | 0.367 | 0.198
HOP-62 | 0.545 | 0.734 | 0.788 | 0.678 | 0.656 | 0.692 | 0.631 | 0.438 |  | 0.997 | 0.823 | 1.04 | 0.965 | 0.926 | 1.05 | 0.977
